Measurements from patent publication US20080312187A1, “PHOSPHOINOSITIDE MODULATION FOR THE TREATMENT OF ALZHEIMER'S DISEASE” (priority 2005, published 2008).
Entries after “also recorded” stand apart in the source; their conditions may differ. Where two headings read alike, the source gives them in different places.

How the values were obtained:
β-secretase (sAPPβ) = assay: Secreted APP ectodomain generated by β-secretase (sAPPβ) in conditioned media of HeLa APPsw cells; format: cell-based, human; conditions: HeLa cells stably expressing APPsw
Protocol: (§1) FIG. 3A-F. PIP2 levels modulate Aβ biogenesis via two mechanisms. PIP2 levels modulate the release of soluble APP ectodomain into the medium. HeLa cells stably expressing APPsw were treated with either PLC inhibitors (EDEL, MILT) or PLC activator (M3M). Conditioned cell media were analyzed for secreted APP ectodomains generated by α-(sAPPα) (A) and β-secretase (sAPPβ) (B) cleavage. Aβ42 (D) and total Aβ biogenesis (C) in HEK293 cells transiently transfected with C99, C-terminal stub of APP that serves as a direct γ-secretase substrate, in the presence of PIP2 level modulator, EDEL. Aβ42 (F) and total Aβ biogenesis (E) in HEK293 cells transiently transfected with C99, C-terminal stub of APP that serves as a direct γ-secretase substrate, in the presence of PIP2 level modulator, M3M.
(§2) PIP2 levels modulate Aβ biogenesis via two distinct mechanisms. The metabolites of PIP2, including IP3 and DAG, have been implicated in APP processing pathways (69, 70, 71). Under normal conditions, PIP2 hydrolysis (to generate IP3 and DAG) favors the generation of α-secretase-generated secreted APP ectodomain (sAPPα). […] To more clearly define the role of PIP2 in modulating γ-secretase activity (e.g. Aβ42), we next expressed an APP-C99 construct, an ectopic γ-secretase substrate which resembles β-secretase-generated, membrane-associated APP stub in heterologous cells.

α-secretase (sAPPα) = assay: Secreted APP ectodomain generated by α-secretase (sAPPα) in conditioned media of HeLa APPsw cells; format: cell-based, human; conditions: HeLa cells stably expressing APPsw
Protocol: as §1, §2

PIP2 = assay: Steady-state PIP2 levels determined by HPLC in HeLa cells overexpressing APPsw; format: cell-based; conditions: HeLa cells stably overexpressing Swedish variant of human APP
Description: (§3) FIG. 2A-E. Changes in PIP2 levels correlate with Aβ42 biogenesis. PIP2 levels (A) and Aβ42 biogenesis (D) in HeLa cells overexpressing human APPsw treated with either PLC inhibitor edelfosine (EDEL) or its active analog miltefosine (MILT). PIP2 levels (B) and Aβ42 biogenesis (E) in HeLa cells overexpressing human APPsw treated with PLC activator m-3m3FBS (M3M). (C) Modulation of PIP2 levels correlates with Aβ42 biogenesis. HeLa cells stably overexpressing the Swedish variant of human APP were treated with either control (DMSO), PLC inhibitor edelfosine (EDEL) or its active analog miltefosine (MILT). Steady-state PIP2 levels were determined by HPLC.

full-length APP (FL-APP) = assay: Steady-state full-length APP by Western blot in treated HeLa APPsw cells; format: cell-based, human; conditions: Western blot analysis
Protocol: Full length APP and total Aβ biogenesis are not affected in treated cells. Modulation of PIP2 levels correlates with Aβ42 biogenesis. HeLa cells stably overexpressing the Swedish variant of human APP were treated with either control (DMSO), PLC inhibitor edelfosine (EDEL) or its active analog miltefosine (MILT). Steady-state PIP2 levels were determined by HPLC.

[1] = system: presenilin/γ-secretase (Aβ42); assay: Aβ42 biogenesis in HEK293 cells transiently transfected with C99 (direct γ-secretase substrate); format: cell-based
Protocol: as §1, §2

Aβ42 [2] = assay: Aβ42 biogenesis in HeLa cells overexpressing APPsw; format: cell-based; conditions: HeLa cells stably overexpressing Swedish variant of human APP
Description: as §3

Aβ42 [3] = assay: Aβ42 in cultured hippocampal primary neurons from Tg2576 mice; format: cell-based, mouse; conditions: for Aβ42 in cultured hippocampal primary neurons: primary neurons from Tg2576 mice
Description: FIG. 15A-B. (A) Rk1 and (20S)Rg3 decrease Aβ42 in cultured hippocampal primary neurons from Ad-model Tg2576 mice.
(§4) Of note, γ-secretase inhibitors and non-steroidal anti-inflammatory drugs were not found to reverse these CCE defects (FIG. 17A-B). Ginsenosides such as (20S)Rg3 may therefore, unlike other Aβ42-lowering agents, also ameliorate the defect in CCE associated with Aβ. The following data support the role of PLCγ1 as a common upstream target modulating CCE as well as Aβ42 levels.

Aβ42 [4] = assay: Aβ42 ELISA in Hela-APPsw cells transfected with siRNA against PLC isoforms and treated with Rg3; format: cell-based, human
Protocol: FIG. 18A-B. Role of PLC γ1 in Aβ42-lowering activity of ginsenosides. (A) Hela-APPsw cells transfected with specific siRNA against PLCβ3, PLC γ1 and PLC γ2 were treated with either DMSO or 15 μM Rg3 for 6 hr. The down regulation of PLCβ3, PLCγ1 and PLCγ2 was confirmed by Western blot using isoform-specific antibodies. (B) Effects of RNAi-mediated downregulation of PLC isoforms in the presence of Rg3 treatment. Aβ42 levels were measured in the conditioned media by ELISA. Aβ values are shown as percentage of control siRNA and are the mean ±s.d. from three independent experiments (*P<0.001, **P<0.01 using ANOVA followed by Dunnett's test). (77,78)
Hela cells stably expressing Swedish FAD mutant APP (Hela-APPsw cells) were treated with small interfering RNA (siRNA) selective against various PLCβ(β1-4) and PLCγ (γ1, 2) isoforms.

hippocampal slices = assay: Long-term potentiation (fEPSP slope) in hippocampal slices treated with Aβ42
Description: FIG. 5. […] The field excitatory post synaptic potential slope (FEPSP slope) in hippocampal slices that were untreated or treated with Aβ42 (Aβ) or Aβ42 and 20(S)Rg3 was monitored over time.
PIP2 modulation rescues Aβ oligomer-induced synaptic dysfunction.

Aβ42 [5] = assay: Aβ42 versus Aβ40 production in cell lines treated with ginsenosides; format: cell-based; conditions: cell lines and primary neurons
Description: as §4

Tg2576 mice = assay: Aβ42/Aβ40 ratio in brains of Tg2576 mice; format: in vivo, mouse; conditions: Tg2576 transgenic mice

For `CCCCCCCCCCCCCCCCOP(=O)([O-])OCC[N+](C)(C)C` [miltefosine], the sAPPβ secretion (β-secretase (sAPPβ)) was “reduction in sAPPβ secretion” and the sAPPα generation (α-secretase (sAPPα)) was “increases in sAPPα generation”.
For `Cc1cc(C)c(S(=O)(=O)Nc2cccc(C(F)(F)F)c2)c(C)c1` [m-3m3FBS], the sAPPβ secretion (β-secretase (sAPPβ)) was “dramatic increase”, the sAPPα generation (α-secretase (sAPPα)) was “decreases in sAPPα” and the “decrease in the steady state levels of PIP2” value (PIP2) was ~11%. For the same compound, the “effect on steady-state levels of full-length APP (FL-APP)” value (full-length APP (FL-APP)) was “No significant effects”, the “effect on Aβ42 in C99-transfected cells” value [1] was “Aβ42-promoting activity” and the “increase in Aβ42” value (Aβ42 [2]) was 37.2%.
In the case of `CCCCCCCCCCCCCCCCCCOCC(COP(=O)([O-])OCC[N+](C)(C)C)OC` (stereo not shown) [edelfosine, Edelfosine], the “increase in the steady-state levels of PIP2” value (PIP2; vs control (DMSO)) is reported as ~10% and the “decrease in the levels of Aβ42” value (Aβ42 [2]; vs control (DMSO)) is reported as 37.3%.
In the case of `CC(C)=CCC[C@](C)(O)[C@H]1CC[C@]2(C)[C@@H]1[C@H](O)C[C@@H]1[C@@]3(C)CC[C@H](O[C@@H]4O[C@H](CO)[C@@H](O)[C@H](O)[C@H]4O[C@@H]4O[C@H](CO)[C@@H](O)[C@H](O)[C@H]4O)C(C)(C)[C@@H]3CC[C@]12C` [(20S)Rg3], the “Aβ42/Aβ40 ratio in cultured neurons” value (Aβ42 [3]; cultured neurons) is reported as “decreased Aβ42/Aβ40 ratio”, the “Aβ42 in cultured hippocampal primary neurons” value (Aβ42 [3]) is reported as “decrease Aβ42” and the “Aβ42-lowering effect with PLCβ3 expression inhibited by siRNA” value (Aβ42 [4]; 15 μM Rg3 for 6 hr, PLCβ3 siRNA) is reported as “nearly abolished”. The “Aβ42-lowering effect with PLCγ1 expression inhibited by siRNA” value (Aβ42 [4]; 15 μM Rg3 for 6 hr, PLCγ1 siRNA) was “nearly abolished”, the “reduction of Aβ42 generation when PLCγ1 levels are suppressed (dose-response experiments)” value (Aβ42 [4]; PLCγ1 suppressed) was “far less effective” and the “long-term potentiation (fEPSP slope) in the presence of Aβ42” value (“long-term potentiation (fEPSP slope)” below) (hippocampal slices) was “blocks Abeta oligomer-induced inhibition of long-term potentitation”. For the same compound, the “long-term potentiation (fEPSP slope)” value (hippocampal slices; listed as 20(S)Rg3) was “increases LTP expression relative to untreated hippocampal slices”, the “long-term potentiation (fEPSP slope)” value (hippocampal slices; listed as SMT-3) was “blocks Aβ42 oligomer-induced synaptic dysfunction” and the “Aβ37 and Aβ38” value (Aβ42 [5]) was “concomitant increase”. The “Aβ42 production relative to Aβ40” value (Aβ42 [5]) was “preferentially lower the production of Aβ42; also recorded: also selectively decreases Aβ42 relative to Aβ40”, the “Aβ42/Aβ40 ratio in the brains” value (Tg2576 mice) was “decreases the ratio of Aβ42 to Aβ40” and the “Aβ42/Aβ40 ratio in the brains” value (Tg2576 mice; listed as Rg3) was “decreased Aβ42/Aβ40 ratio”.
With `C=C(CCC=C(C)C)[C@H]1CC[C@]2(C)[C@@H]1[C@H](O)C[C@@H]1[C@@]3(C)CC[C@H](O[C@@H]4O[C@H](CO)[C@@H](O)[C@H](O)[C@H]4O[C@@H]4O[C@H](CO)[C@@H](O)[C@H](O)[C@H]4O)C(C)(C)[C@@H]3CC[C@]12C` [Rk1] the “Aβ42 in cultured hippocampal primary neurons” value (Aβ42 [3]) was “decrease Aβ42”, the “Aβ37 and Aβ38” value (Aβ42 [5]) was “concomitant increase” and the “Aβ42 production relative to Aβ40” value (Aβ42 [5]) was “preferentially lower the production of Aβ42; also recorded: selectively decreases Aβ42 relative to Aβ40”.
